Results published in PMC9881157 (2023).

Tests used:
Experiment in all cases: RNA-DRaCALA titration
[1] = tested on: C21 (RNA, riboswitch) UAAGAGGCUAACUAGGGUUCCGAUGGUUUCAUGCUGGUCCAAGCGUUAGCAAACAUACUGAGGAAGGUAUGUUACACCGUUAGUACAAAAGGCUCGGCGGGAGGUCUUAUCCUUAAAAAAGCCACCGCCACCGCCACCGCCACCGCCACCGCCACCGCC; details: 10 mM MgCl2; 20 mM Tris-HCl pH 7.5, 37 °C; 10 nM 32P-ligand
[2] = tested on: C16 (RNA, riboswitch) CAGAAGGGUACCUAGGGUUCCGUCCAUUUGAUUCAAGGGAGUCUGGACCAAGCGGUAUCGGCACCGGGAUAUGGUGUACACCGUGGGGAUAAAAGCCUCCAGCGGCAGGUUCUGAUGCAAAAAAAGCCACCGCCACCGCCACCGCCACCGCCACCGCCACCGCC; details: 10 mM MgCl2; 20 mM Tris-HCl pH 7.5, 37 °C; 10 nM 32P-ligand
[3] = tested on: To-B (T. oceani ilvE, biotinylated) (RNA, riboswitch) AGGAAGUGUACCUUAGGGUUCCGGCCAUAAGGCGUCAGCGACCGAGCGGUACAAUCCGGGGAAACCCGGAACACCGUGAGCAUAAAAGGCUCCAGCGGCAAGUUCCUAAAAGAC; details: 10 mM MgCl2; 20 mM Tris-HCl pH 7.5, 37 °C; 1 nM 32P-ppGpp

Kd [1] | Kd [2] | Kd [3] | SMILES
654 ± 121 nM | 33 ± 3.7 nM | 22.1 ± 1.6 nM | Nc1nc2c(ncn2[C@@H]2O[C@H](COP(=O)(O)OP(=O)(O)O)[C@@H](OP(=O)(O)OP(=O)(O)O)[C@H]2O)c(=O)[nH]1
– | 137 ± 17 nM | – | Nc1nc2c(ncn2[C@@H]2O[C@H](COP(=O)(O)OP(=O)(O)OP(=O)(O)O)[C@@H](OP(=O)(O)OP(=O)(O)O)[C@H]2O)c(=O)[nH]1
